Test results taken from ChEMBL document CHEMBL1151440, “Safety and pharmacokinetics of GSK364735, a human immunodeficiency virus type 1 integrase inhibitor, following single and repeated administration in healthy adult subjects” (Antimicrob Agents Chemother, 2007).

Experiments:
[1] = test system: Human immunodeficiency virus 1; assay: Antiviral activity against HIV1 BaL in peripheral blood lymphocytes in presence of 100% human serum; type: functional, organism-based; details: Human immunodeficiency virus 1, BaL
Rattus norvegicus = assay: Clearance in iv dosed rat assessed as liver blood flow; type: ADME, organism-based; details: in vivo
Rhesus monkey = assay: Clearance in iv dosed monkey assessed as liver blood flow; type: ADME, organism-based, Macaca mulatta; details: in vivo
[2] = Terminal elimination half life in iv dosed rat; type: ADME, organism-based; details: in vivo, read-out: beta t1/2 (converted)
[3] = Oral bioavailability rat; type: ADME, organism-based; details: in vivo
[4] = Plasma concentration in human at 200 mg administered with fat meal every 8 hrs for 8 days measured on day 1 after 12 hrs of first dose; type: ADME, organism-based
[5] = Apparent oral clearance in human at 400 mg administered with fat meal daily for 8 days measured on day 1; type: ADME, organism-based; details: in vivo
[6] = Apparent oral clearance in human at 200 mg administered with fat meal every 8 hrs for 8 days measured on day 1; type: ADME, organism-based; details: in vivo
[7] = Cmax in human at 50 mg administered with fat meal every 12 hrs for 8 days measured on day 8; type: ADME, organism-based; set-up: dose 50 mg; details: in vivo
[8] = Tmax in human at 50 mg administered with fat meal every 12 hrs for 8 days measured on day 8; type: ADME, organism-based; details: in vivo
[9] = Tmax in human at 400 mg administered with fat meal daily for 8 days measured on day 8; type: ADME, organism-based; details: in vivo
[10] = Terminal elimination half life in human at 200 mg administered with fat meal every 8 hrs for 8 days measured on day 8; type: ADME, organism-based; details: in vivo, read-out: beta t1/2 (converted)
[11] = Oral bioavailability in monkey; type: ADME, organism-based, Macaca mulatta; details: rhesus monkey, in vivo
Homo sapiens [12] = assay: Toxicity in human assessed as headache at 50 to 200 mg administered as single dose; type: organism-based; details: in vivo
Homo sapiens [13] = assay: Toxicity in human assessed as flatulence at 50 to 200 mg administered as single dose; type: organism-based; details: in vivo
Homo sapiens [14] = assay: Toxicity in human assessed as adverse effect at 50 mg administered every 12 hrs for 8 days; type: organism-based; details: in vivo
Homo sapiens [15] = assay: Toxicity in human assessed as headache at 50 mg administered every 12 hrs for 8 days; type: organism-based; details: in vivo
Homo sapiens [16] = assay: Toxicity in human assessed as dizziness at 50 mg administered every 12 hrs for 8 days; type: organism-based; details: in vivo
Homo sapiens [17] = assay: Toxicity in human assessed as adverse effect at 100 mg administered every 12 hrs for 8 days; type: organism-based; details: in vivo
Homo sapiens [18] = assay: Toxicity in human assessed as headache at 200 mg administered every 12 hrs for 8 days; type: organism-based; details: in vivo
Homo sapiens [19] = assay: Toxicity in human assessed as dizziness at 200 mg administered every 12 hrs for 8 days; type: organism-based; details: in vivo
Homo sapiens [20] = species: Homo sapiens; assay: Toxicity in human assessed as headache at 400 mg daily for 8 days; type: organism-based; details: in vivo, 192 h
Homo sapiens [21] = species: Homo sapiens; assay: Toxicity in human assessed as dizziness at 400 mg daily for 8 days; type: organism-based; details: in vivo, 192 h
Homo sapiens [22] = assay: Toxicity in human assessed as adverse effect at 200 mg administered every 8 hrs for 8 days; type: organism-based; details: in vivo
Homo sapiens [23] = assay: Toxicity in human assessed as changes in hematology at 50 to 400 mg after sequential repeated administration for 8 days; type: organism-based; details: in vivo, 192 h
Homo sapiens [24] = assay: Toxicity in human assessed as changes in vital sign at 50 to 400 mg after sequential repeated administration for 8 days; type: organism-based; details: in vivo, 192 h
Homo sapiens [25] = assay: Toxicity in human assessed as changes in 12-lead ECG at 50 to 400 mg after sequential repeated administration for 8 days; type: organism-based; details: in vivo, 192 h
Homo sapiens [26] = assay: Toxicity in human assessed as changes in continuous telemetry monitoring at 50 to 400 mg after sequential repeated administration for 8 days; type: organism-based; details: in vivo, 192 h
[27] = AUC (0 to infinity) in fasted human at 100 mg administered as single dose; type: ADME, organism-based; set-up: dose 100 mg, time infinity; details: plasma
[28] = AUC (0 to infinity) in fasted human at 400 mg administered as single dose; type: ADME, organism-based; set-up: dose 400 mg, time infinity; details: plasma
[29] = AUC (0 to infinity) in human at 200 mg administered with fat meal as single dose; type: ADME, organism-based; set-up: dose 200 mg, time infinity; details: plasma
[30] = Apparent oral clearance in human at 400 mg administered with fat meal daily for 8 days measured on day 8; type: ADME, organism-based; details: in vivo
[31] = Apparent oral clearance in human at 200 mg administered with fat meal every 8 hrs for 8 days measured on day 8; type: ADME, organism-based; details: in vivo
[32] = Cmax in fasted human at 200 mg administered as single dose; type: ADME, organism-based; set-up: dose 200 mg; details: in vivo
[33] = Cmax in fasted human at 400 mg administered as single dose; type: ADME, organism-based; set-up: dose 400 mg; details: in vivo
[34] = Cmax in human at 200 mg administered with fat meal as single dose; type: ADME, organism-based; set-up: dose 200 mg; details: in vivo
[35] = Cmax in human at 400 mg administered with fat meal as single dose; type: ADME, organism-based; set-up: dose 400 mg; details: in vivo
[36] = Tmax in fasted human at 50 mg administered as single dose; type: ADME, organism-based; details: in vivo
[37] = Tmax in fasted human at 400 mg administered as single dose; type: ADME, organism-based; details: in vivo
[38] = Terminal elimination half life in fasted human at 50 mg administered as single dose; type: ADME, organism-based; details: in vivo, read-out: beta t1/2 (converted)
[39] = Terminal elimination half life in fasted human at 200 mg administered as single dose; type: ADME, organism-based; details: in vivo, read-out: beta t1/2 (converted)
[40] = Terminal elimination half life in fasted human at 400 mg administered as single dose; type: ADME, organism-based; details: in vivo, read-out: beta t1/2 (converted)
[41] = Terminal elimination half life in human at 200 mg administered with fat meal as single dose; type: ADME, organism-based; details: in vivo, read-out: beta t1/2 (converted)
[42] = Terminal elimination half life in human at 400 mg administered with fat meal as single dose; type: ADME, organism-based; details: in vivo, read-out: beta t1/2 (converted)
[43] = Apparent oral clearance in fasted human at 200 mg administered as single dose; type: ADME, organism-based; details: in vivo
[44] = Apparent oral clearance in fasted human at 400 mg administered as single dose; type: ADME, organism-based; details: in vivo
[45] = Apparent oral clearance in human at 200 mg administered with fat meal as single dose; type: ADME, organism-based; details: in vivo
[46] = AUC (0 to infinity) in human at 50 mg administered with fat meal every 12 hrs for 8 days measured on day 1; type: ADME, organism-based; set-up: dose 50 mg, time infinity; details: plasma
[47] = Apparent oral clearance in human at 50 mg administered with fat meal every 12 hrs for 8 days measured on day 8; type: ADME, organism-based; details: in vivo
[48] = Apparent oral clearance in human at 100 mg administered with fat meal every 12 hrs for 8 days measured on day 8; type: ADME, organism-based; details: in vivo
[49] = AUC (0 to infinity) in human at 400 mg administered with fat meal daily for 8 days measured on day 1; type: ADME, organism-based; set-up: dose 400 mg, time infinity; details: plasma
[50] = AUC (0 to infinity) in human at 200 mg administered with fat meal every 8 hrs for 8 days measured on day 1; type: ADME, organism-based; set-up: dose 200 mg, time infinity; details: plasma
[51] = Cmax in human at 50 mg administered with fat meal every 12 hrs for 8 days measured on day 1; type: ADME, organism-based; set-up: dose 50 mg; details: in vivo
[52] = Cmax in human at 200 mg administered with fat meal every 12 hrs for 8 days measured on day 1; type: ADME, organism-based; set-up: dose 200 mg; details: in vivo
[53] = Cmax in human at 400 mg administered with fat meal daily for 8 days measured on day 1; type: ADME, organism-based; set-up: dose 400 mg; details: in vivo
[54] = Tmax in human at 50 mg administered with fat meal every 12 hrs for 8 days measured on day 1; type: ADME, organism-based; details: in vivo
[55] = Tmax in human at 100 mg administered with fat meal every 12 hrs for 8 days measured on day 1; type: ADME, organism-based; details: in vivo
[56] = Tmax in human at 400 mg administered with fat meal daily for 8 days measured on day 1; type: ADME, organism-based; details: in vivo
[57] = Terminal elimination half life in human at 100 mg administered with fat meal every 12 hrs for 8 days measured on day 1; type: ADME, organism-based; details: in vivo, read-out: beta t1/2 (converted)
[58] = Terminal elimination half life in human at 200 mg administered with fat meal every 12 hrs for 8 days measured on day 1; type: ADME, organism-based; details: in vivo, read-out: beta t1/2 (converted)

SMILES: Cn1c(=O)c(C(=O)NCCO)c(O)c2ncc(Cc3ccc(F)cc3)cc21 [GSK-364735]
- IC50 [1]: 42 nM
- IC90 [1]: 168 nM
- QH (Rattus norvegicus): 5.8%
- QH (Rhesus monkey): 4.6%
- half-life [2]: 1.5 h
- bioavailability [3]: 6%
- concentration at 12 h [4]: 130 ng/mL
- CL/F [5]: 433 mL/min
- CL/F [6]: 567 mL/min
- Cmax [7]: 1400 ng/mL
- Tmax [8]: 3.75 h
- Tmax [9]: 4 h
- half-life [10]: 4 h
- bioavailability [11]: 6%
- Activity (Homo sapiens [12]): 4%
- Activity (Homo sapiens [13]): 4%
- Activity (Homo sapiens [14]): 25%
- Activity (Homo sapiens [15]): 13%
- Activity (Homo sapiens [16]): Non-toxic
- Activity (Homo sapiens [17]): 38%
- Activity (Homo sapiens [18]): 13%
- Activity (Homo sapiens [19]): Non-toxic
- Activity (Homo sapiens [20]): Non-toxic
- Activity (Homo sapiens [21]): Non-toxic
- Activity (Homo sapiens [22]): 63%
- Activity (Homo sapiens [23]): Non-toxic
- Activity (Homo sapiens [24]): Non-toxic
- Activity (Homo sapiens [25]): Non-toxic
- Activity (Homo sapiens [26]): Non-toxic
- AUC(0-inf) [27]: 5200 ng·h/mL
- AUC(0-inf) [28]: 6600 ng·h/mL
- AUC(0-inf) [29]: 11000 ng·h/mL
- CL/F [30]: 550 mL/min
- CL/F [31]: 683 mL/min
- Cmax [32]: 1100 ng/mL
- Cmax [33]: 1300 ng/mL
- Cmax [34]: 1300 ng/mL
- Cmax [35]: 840 ng/mL
- Tmax [36]: 1.5 h
- Tmax [37]: 2.2 h
- half-life [38]: 3.1 h
- half-life [39]: 5.3 h
- half-life [40]: 6.6 h
- half-life [41]: 6.5 h
- half-life [42]: 5.8 h
- CL/F [43]: 600 mL/min
- CL/F [44]: 1020 mL/min
- CL/F [45]: 317 mL/min
- AUC(0-inf) [46]: 4000 ng·h/mL
- CL/F [47]: 150 mL/min
- CL/F [48]: 138 mL/min
- AUC(0-inf) [49]: 15000 ng·h/mL
- AUC(0-inf) [50]: 5900 ng·h/mL
- Cmax [51]: 740 ng/mL
- Cmax [52]: 1500 ng/mL
- Cmax [53]: 2200 ng/mL
- Tmax [54]: 5.5 h
- Tmax [55]: 3.25 h
- Tmax [56]: 5 h
- half-life [57]: 3.1 h
- half-life [58]: 3.9 h
